Source: patent EP3915971A1, “PHENYL-S(O)N-PHENYLAMIDINES AND THE USE THEREOF AS FUNGICIDES” (Bayer Aktiengesellschaft, priority 2020, dated 2021)

Columns and labels:
[1] = LogP measurement by HPLC on reversed phase columns (EEC directive 79/831 Annex V.A8); type: physicochemical
Method: Measurement of LogP values was performed according to EEC directive 79/831 Annex V.A8 by HPLC (High Performance Liquid Chromatography) on reversed phase columns with the following methods: • ^[a] LogP value is determined by measurement of LC-UV, in an acidic range, with 0.1% formic acid in water and acetonitrile as eluent (linear gradient from 10% acetonitrile to 95% acetonitrile). • ^[b] LogP value is determined by measurement of LC-UV, in a neutral range, with 0.001 molar ammonium acetate solution in water and acetonitrile as eluent (linear gradient from 10% acetonitrile to 95% acetonitrile). • ^[c] LogP value is determined by measurement of LC-UV, in an acidic range, with 0.1% phosphoric acid and acetonitrile as eluent (linear gradient from 10% acetonitrile to 95% acetonitrile).
If more than one LogP value is available within the same method, all the values are given and separated by "+". […]

[2] = test system: Phakospora pachyrhizi; assay: in vivo preventive test on Phakospora pachyrhizi (soybean rust); conditions: for pest or weed control at 500 ppm: Glycine max, 264 h, 500 ppm of active ingredient, preventive spray on young soybean plants, inoculation after 24 hours, evaluated 11 days after inoculation, 0% = control plants, 100% = no disease, read-out: efficacy
Method: Example A: in vivo preventive test on Phakospora pachyrhizi (soybean rust) [table] The active ingredients were made soluble and homogenized in a mixture of Dimethyl sulfoxide/Acetone/ /Tween® 80 and then diluted in water to the desired concentration. The young plants of soybean were treated by spraying the active ingredient prepared as described above. Control plants were treated only with an aqueous solution of Acetone/Dimethyl sulfoxide/ Tween® 80. After 24 hours, the plants were contaminated by spraying the leaves with an aqueous suspension of Phakospora pachyrhizi spores. The contaminated soybean plants were incubated for 24 hours at 24°C and at 100% relative humidity and then for 10 days at 24°C and at 70-80% relative humidity. The test was evaluated 11 days after the inoculation. 0% means an efficacy which corresponds to that of the control plants while an efficacy of 100% means that no disease was observed.

[3] = reversed phase HPLC columns, method [a]: LC-UV, acidic range, 0.1% formic acid in water and acetonitrile as eluent (linear gradient 10% to 95% acetonitrile)
[4] = reversed phase HPLC columns, method [b]: LC-UV, neutral range, 0.001 molar ammonium acetate solution in water and acetonitrile as eluent (linear gradient 10% to 95% acetonitrile)

| SMILES | chromatographic logP [1, 3] | chromatographic logP [1, 4] | chromatographic logP ([1]; method [a]: LC-UV, acidic range, 0.1% formic acid in water and acetonitrile as eluent (linear gradient 10% to 95% acetonitrile)) | pest or weed control at 500 ppm [2] | efficacy ([2]; 500 ppm) |
| --- | --- | --- | --- | --- | --- |
| CCN(C)C=Nc1cc(C)c(Sc2ccccc2)cc1C1CC1 [Example I-090, N'-(2-cyclopropyl-5-methyl-4-phenylsulfanylphenyl)-N-ethyl-N-methylmethanimidamide] | 1.77 |  |  | ≥ 70% |  |
| CCN(C)C=Nc1cc(Cl)c(Sc2ccccc2C#N)cc1C [Example I-067, N'-[5-chloro-4-[(2-cyanophenyl)thio]-2-methylphenyl]-N-ethyl-N-methylmethanimidamide] | 1.53 |  |  | ≥ 70% |  |
| CCN(C)C=Nc1cc(C)c(Sc2ccccc2C)cc1C1CC1 [Example I-085, N'-[2-cyclopropyl-5-methyl-4-[(2-methylphenyl)thio]phenyl]-N-ethyl-N-methylmethanimidamide] | 1.99 |  |  | ≥ 70% |  |
| CCN(C)C=Nc1cc(C)c(Sc2ccccc2C)cc1Br [Example I-078, N'-[2-bromo-5-methyl-4-[(2-methylphenyl)thio]phenyl]-N-ethyl-N-methylmethanimidamide] | 1.92 |  |  | ≥ 70% |  |
| CCN(C)C=Nc1cc(C#N)c(Sc2ccccc2Cl)cc1C [Example I-060, N'-[4-[(2-chlorophenyl)thio]-5-cyano-2-methylphenyl]-N-ethyl-N-methylmethanimidamide] | 1.66 |  |  | ≥ 70% |  |
| CCN(C)C=Nc1cc(C)c(Sc2ccccc2F)cc1C1CC1 [Example I-097, N'-[2-cyclopropyl-4-[(2-fluorophenyl)thio]-5-methylphenyl]-N-ethyl-N-methylmethanimidamide] | 1.8 |  |  | ≥ 70% |  |
| CCN(C)C=Nc1cc(C)c(Sc2ccccc2Cl)cc1C1CC1 [Example I-099, N'-[4-[(2-chlorophenyl)thio]-2-cyclopropyl-5-methylphenyl]-N-ethyl-N-methylmethanimidamide] | 1.99 |  |  | ≥ 70% |  |
| CCN(C)C=Nc1cc(Cl)c(Sc2ccccc2)cc1C [Example I-041, N'-(5-chloro-2-methyl-4-phenylsulfanylphenyl)-N-ethyl-N-methylmethanimidamide] | 1.63 |  |  | ≥ 70% |  |
| CCN(C)C=Nc1cc(C)c(Sc2ccccc2C#N)cc1C1CC1 [Example I-100, N'-[4-[(2-cyanophenyl)thio]-2-cyclopropyl-5-methylphenyl]-N-ethyl-N-methylmethanimidamide] | 1.6 | 4.74 |  | ≥ 70% |  |
| CCN(C)C=Nc1cc(F)c(Sc2ccccc2)cc1C [Example I-021, N-ethyl-N'-(5-fluoro-2-methyl-4-phenylsulfanylphenyl)-N-methylmethanimidamide] | 1.53 |  |  | ≥ 70% |  |
| CCN(C)C=Nc1cc(C#N)c(Sc2ccccc2)cc1C [Example I-054, N'-(5-cyano-2-methyl-4-phenylsulfanylphenyl)-N-ethyl-N-methylmethanimidamide] | 1.42 |  |  | ≥ 70% |  |
| CCc1cc(Sc2ccccc2F)c(C)cc1N=CN(C)CC [Example I-087] |  |  | 1.77 |  | at least 70% |
| CCN(C)C=Nc1cc(C)c(Sc2ccccc2F)cc1Cl [Example I-008, N'-[2-chloro-4-[(2-fluorophenyl)thio]-5-methylphenyl]-N-ethyl-N-methylmethanimidamide] | 1.6 |  |  | ≥ 70% |  |
| CCc1cc(Sc2ccccc2C#N)c(C)cc1N=CN(C)CC [Example I-102, N'-[4-[(2-cyanophenyl)thio]-2-ethyl-5-methylphenyl]-N-ethyl-N-methylmethanimidamide] | 1.58 | 4.95 |  | ≥ 70% |  |

Further lines, with some results ahead:

| chromatographic logP [1, 3] | chromatographic logP [1, 4] | chromatographic logP ([1]; method [a]: LC-UV, acidic range, 0.1% formic acid in water and acetonitrile as eluent (linear gradient 10% to 95% acetonitrile)) | SMILES | pest or weed control at 500 ppm [2] | efficacy ([2]; 500 ppm) |
| --- | --- | --- | --- | --- | --- |
| 1.58 |  |  | CCN(C)C=Nc1cc(Br)c(S(=O)(=O)c2ccccc2Cl)cc1C [Example I-044, N'-[5-bromo-4-(2-chlorophenyl)sulfonyl-2-methylphenyl]-N-ethyl-N-methylmethanimidamide] | ≥ 70% |  |
| 1.77 |  |  | CCN(C)C=Nc1cc(C)c(Sc2ccccc2C)cc1Cl [Example I-006, N'-[2-chloro-5-methyl-4-[(2-methylphenyl)thio]phenyl]-N-ethyl-N-methylmethanimidamide] | ≥ 70% |  |
| 1.61 |  |  | CCN(C)C=Nc1cc(Cl)c(Sc2ccccc2F)cc1C [Example I-024, N'-[5-chloro-4-[(2-fluorophenyl)thio]-2-methylphenyl]-N-ethyl-N-methylmethanimidamide] | ≥ 70% |  |
| 1.66 |  |  | CCN(C)C=Nc1cc(F)c(Sc2ccccc2C)cc1C [Example I-022, N-ethyl-N'-[5-fluoro-2-methyl-4-[(2-methylphenyl)thio]phenyl]-N-methylmethanimidamide] | ≥ 70% |  |
| 1.42 |  |  | CCN(C)C=Nc1cc(Cl)c(S(=O)(=O)c2ccccc2F)cc1C [Example I-026, N'-[5-chloro-4-(2-fluorophenyl)sulfonyl-2-methylphenyl]-N-ethyl-N-methylmethanimidamide] | ≥ 70% |  |
| 1.83 |  |  | CCN(C)C=Nc1cc(C)c(Sc2ccccc2Cl)cc1Cl [Example I-007, N'-[2-chloro-4-[(2-chlorophenyl)thio]-5-methylphenyl]-N-ethyl-N-methylmethanimidamide] | ≥ 70% |  |
| 2.05 |  |  | CCN(C)C=Nc1cc(C)c(Sc2ccccc2Cl)cc1Br [Example I-098, N'-[2-bromo-4-[(2-chlorophenyl)thio]-5-methylphenyl]-N-ethyl-N-methylmethanimidamide] | ≥ 70% |  |
| 1.37 |  |  | CCc1cc(S(=O)(=O)c2ccccc2C)c(C)cc1N=CN(C)CC [Example I-091, N-ethyl-N'-[2-ethyl-5-methyl-4-(2-methylphenyl)sulfonylphenyl]-N-methylmethanimidamide] | ≥ 70% |  |
| 1.18 |  |  | CCN(C)C=Nc1cc(C)c(S(=O)(=O)c2ccccc2Cl)cc1C [Example I-020, N'-[4-(2-chlorophenyl)sulfonyl-2,5-dimethylphenyl]-N-ethyl-N-methylmethanimidamide] | ≥ 70% |  |
| 1.81 |  |  | CCN(C)C=Nc1cc(Cl)c(Sc2ccccc2C)cc1C [Example I-025, N'-[5-chloro-2-methyl-4-[(2-methylphenyl)thio]phenyl]-N-ethyl-N-methylmethanimidamide] | ≥ 70% |  |
| 1.69 |  |  | CCN(C)C=Nc1cc(F)c(Sc2ccccc2Cl)cc1C [Example I-023, N'-[4-[(2-chlorophenyl)thio]-5-fluoro-2-methylphenyl]-N-ethyl-N-methylmethanimidamide] | ≥ 70% |  |
| 1.42 |  |  | CCN(C)C=Nc1cc(C)c(Sc2ccccc2C#N)cc1C [Example I-069, N'-[4-[(2-cyanophenyl)thio]-2,5-dimethylphenyl]-N-ethyl-N-methylmethanimidamide] | ≥ 70% |  |
| 1.84 |  |  | CCN(C)C=Nc1cc(Cl)c(Sc2ccccc2Cl)cc1C [Example I-066, N'-[5-chloro-4-[(2-chlorophenyl)thio]-2-methylphenyl]-N-ethyl-N-methylmethanimidamide] | ≥ 70% |  |
| 1.81 |  |  | CCN(C)C=Nc1cc(Br)c(Sc2ccccc2C)cc1C [Example I-042, N'-[5-bromo-2-methyl-4-[(2-methylphenyl)thio]phenyl]-N-ethyl-N-methylmethanimidamide] | ≥ 70% |  |
| 1.53 |  |  | CCN(C)C=Nc1cc(Br)c(S(=O)(=O)c2ccccc2C)cc1C [Example I-045, N'-[5-bromo-2-methyl-4-(2-methylphenyl)sulfonylphenyl]-N-ethyl-N-methylmethanimidamide] | ≥ 70% |  |
| 2.16 |  |  | CCN(C)C=Nc1cc(C)c(Sc2ccccc2Cl)cc1C [Example I-005, N'-[4-[(2-chlorophenyl)thio]-2,5-dimethylphenyl]-N-ethyl-N-methylmethanimidamide] | ≥ 70% |  |
| 1.84 |  |  | CCN(C)C=Nc1cc(Br)c(Sc2ccccc2Cl)cc1C [Example I-047, N'-[5-bromo-4-[(2-chlorophenyl)thio]-2-methylphenyl]-N-ethyl-N-methylmethanimidamide] | ≥ 70% |  |
